{"source": "patent US8048455B2", "about": "“Treatment of cancer and inflammatory disorder” (Academia Sinica, priority 2006, dated 2011)", "key": {"NF-κB (p65)": {"tested_on": "NF-κB (p65)", "experiment": "NF-κB p65 nuclear translocation in LPS-stimulated RAW 264.7 cells (immunoblotting, confocal microscopy)", "format": "cell-based, murine", "method": "Total cellular proteins and the specific cytosolic and nuclear proteins were prepared using methods described in Chiang et al. Protein content was measured by the Bradford method (Bio-Rad). Protein was resolved by 5-20% gradient SDS-PAGE and subjected to immunoblotting using enhanced chemiluminescence reagents (ECL, Amersham). Monoclonal antibodies against PARP (Transduction Laboratories, Lexington, Ky.), GA3PDH (Biogenesis, Poole, UK), α-tubulin (Oncogene Science, Cambridge, UK), COX-2 (Cayman Chemical), phospho-(Ser32)-IκBα, phospho-IKKα(Ser180)/IKKβ(Ser181) (New England Biolabs, Beverly, Mass.), iNOS, IκBα, IKKα/β or NF-κB p65 (RelA) (Santa Cruz Biotechnology, Santa Cruz, Calif.) were used.\nRAW 264.7 cells were seeded in chamber slides for 1 hour, and then treated with DMSO or dLGG (75 μg/mL) for 1 hour, with or without LPS stimulation for an additional 90 minutes. The cells were fixed, permeabilized with 0.1% Triton X-100, and stained with Hoechst 33342 (DNA marker), FITC-labeled anti-α-tubulin Ab (cytoplasm marker), or rabbit anti-p65 antibody visualized with goat anti-rabbit Rhodamine Red-labeled secondary antibody for analysis with a Zeiss LSM 510 META confocal laser-scanning microscope.\nThe distribution of NF-κB (p65) in nucleus and cytoplasm was determined using immunoblotting. Cells were treated with various concentrations of dLGG for 1 hour and then stimulated with LPS (1 μg/mL) for another 90 min. Nuclear and cytosolic fractions were immunoblotted with p65 NF-κB antibody. A slight increase in nuclear p65 protein (1.5-fold) was detected when macrophages were treated with a low concentration of dLGG (5 μg/mL), compared to LPS alone (1.0). With higher concentrations of dLGG (25 to 75 μg/mL), the level of nuclear p65 decreased accordingly. Cytoplasmic levels of NF-κB (p65) were not affected by dLGG treatment of LPS-stimulated macrophages.\nThe effect of dLGG on NF-κB (p65) nuclear translocation was also examined by confocal microscopy. Macrophages were treated with 0.4% DMSO, or LPS (1 μg/mL) with or without dLGG (75 μg/mL), and stained with fluorescence-labeled antibodies against p65 (red). To distinguish nucleus from cytosol, cells were also stained with DNA-specific Hoechst 33342 (blue) and with anti-α-tubulin antibody (green). In vehicle-treated cells, p65 protein was mainly found in the cytosol of test cells."}, "PGE2 production": {"tested_on": "PGE2 production", "experiment": "LPS-induced PGE2 production in RAW 264.7 macrophages", "format": "cell-based, murine", "settings": "doses between 25 and 75 μg/mL", "method": "PGE2 production was determined according to the procedure described in Chiang et al. Br J Pharmacol 2005; 146:352-63. Macrophages were pretreated with aspirin (500 μM, 3 h) to inactivate endogenous cyclooxygenase-1, washed, and incubated with test compounds for 1 hour before further incubation for 16 hours with or without LPS. PGE2 in the culture media was determined with ACE™ Competitive Enzyme Immunoassay (Cayman Chemical).\nThe above-mentioned test compounds were incubated with COX-2 enzyme and substrates before measuring the COX-2 activity. Celecoxib, a potent nonsteroidal anti-inflammatory drug (NSAID), was used as a positive control. […] The IC50 of the nonsteroidal anti-inflammatory drug celecoxib, used as a positive control, was 0.47 μg/mL. RAW 264.7 cells (1×10^4 cells/well) were treated with dLGG and then stimulated with LPS, and PGE2 in the culture medium was then measured."}, "COX-2 enzyme": {"target": "T1, COX-2 enzyme (Ovis aries, UniProt P79208)", "T1 construct": "purchased Cayman Chemical", "T1 sequence (P79208 17-603)": "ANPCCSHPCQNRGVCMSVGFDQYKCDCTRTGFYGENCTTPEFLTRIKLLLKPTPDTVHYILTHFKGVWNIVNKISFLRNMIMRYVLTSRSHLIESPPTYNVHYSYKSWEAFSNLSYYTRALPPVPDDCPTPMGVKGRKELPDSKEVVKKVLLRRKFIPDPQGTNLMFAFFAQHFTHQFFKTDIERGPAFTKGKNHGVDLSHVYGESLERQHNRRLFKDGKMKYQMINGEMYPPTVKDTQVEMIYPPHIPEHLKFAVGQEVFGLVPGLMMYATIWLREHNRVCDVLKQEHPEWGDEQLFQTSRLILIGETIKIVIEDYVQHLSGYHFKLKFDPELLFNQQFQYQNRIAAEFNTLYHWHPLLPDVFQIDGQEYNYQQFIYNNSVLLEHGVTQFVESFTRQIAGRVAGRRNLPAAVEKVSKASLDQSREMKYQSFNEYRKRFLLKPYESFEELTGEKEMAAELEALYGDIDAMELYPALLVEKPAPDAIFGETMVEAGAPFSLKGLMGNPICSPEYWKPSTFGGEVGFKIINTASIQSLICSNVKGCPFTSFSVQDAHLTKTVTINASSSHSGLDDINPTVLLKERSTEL", "experiment": "Cyclooxygenase-2 activity assay (chemiluminescent COX inhibitor screening kit)", "format": "biochemical", "settings": "COX-2 enzyme and substrates", "method": "COX-2 inhibition was measured with the chemiluminescent COX inhibitor screening assay kit (Cayman Chemical, Ann Arbor, Mich.).\nThe above-mentioned test compounds were incubated with COX-2 enzyme and substrates before measuring the COX-2 activity."}}}
{"smiles": "CC/C=C\\C/C=C\\C/C=C\\CCCCCCCC(=O)OC[C@H](CO[C@@H]1O[C@H](CO)[C@H](O)[C@H](O)[C@H]1O)OC(=O)CCCCCCC/C=C\\C/C=C\\C/C=C\\CC", "note": "[dLGG, 1,2-di-O-α-linolenoyl-3-O-β-galactopyranosyl-sn-glycerol]", "values": [{"measurement": "Nuclear p65 protein compared to LPS alone (1.0)", "setting": "NF-κB (p65); 5 μg/mL, LPS 90 min", "result": 1.5, "unit": "fold"}, {"measurement": "p65 nuclear translocation by confocal microscopy", "setting": "NF-κB (p65); 75 μg/mL, LPS 1 μg/mL", "result": "drastically inhibited"}, {"measurement": "Level of nuclear p65", "setting": "NF-κB (p65); 25 to 75 μg/mL, LPS 90 min", "result": "decreased"}, {"measurement": "Cytoplasmic levels of NF-κB (p65)", "setting": "NF-κB (p65); LPS-stimulated macrophages", "result": "not affected"}, {"measurement": "Reduction of LPS-induced PGE2 levels", "setting": "PGE2 production", "result": "37-58%"}, {"measurement": "IC50", "setting": "COX-2 enzyme", "result": 5.35, "unit": "µM"}]}
